In one experiment the target is T1, human CCR5 (Homo sapiens, UniProt P51681).
T1 construct: expressed in transfected cells; host or cells: CHO-K1 cells, electroporated with plasmid pCKR5 (pcDNA3.1 backbone), geneticin-selected (CHO/CCR5)
In words: Inhibition of [125I]-RANTES binding to human CCR5 in CHO/CCR5 cells (CCR5 antagonistic activity). Particulars: Test Compound 1 μM, 100 pM [125I]-RANTES, room temperature, 40 minutes, read-out: Inhibition Rate (CCR5 binding). How it is done: Cloning of CCR5 gene was carried out by PCR (polymerase chain reaction) from human spleen cDNA. With using 0.5 ng of spleen cDNA (Toyobo, QUICK-Clone cDNA) as template, PCR was performed in DNA Thermal Cycler 480 (Perkin-Elmer) (reaction conditions: 30 cycles of 95° C. for 1 minute, 60° C. for 1 minute, and 75° C. for 5 minutes) by adding primer set, 5'-[…]-3' (25 pmol) and 5'-[…]-3' (25 pmol), which were designed referring to nucleotide sequence of CCR5 gene reported by Samson et al. (Biochemistry, 35(11), 3362-3367 (1996)) and by using TaKaRa EX Taq (TakaraShuzo). The resultant PCR product was subjected to agarose gel. electrophoresis to collect about 1.0 kb DNA fragment, which was subjected to Original TA Cloning Kit (Funakoshi) to carry out cloning of CCR5 gene.
The plasmid obtained in the above (1) was digested with restriction enzymes XbaI (Takara Shuzo) and BamHI (Takara Shuzo) and subjected to agarose gel electrophoresis to collect about 1.0 kb DNA fragment. The DNA fragment was mixed with plasmid pcDNA3.1 (Funakoshi) for expression in animal cells, said plasmid being digested with XbaI and BamHI, and they were ligated with DNA Ligation Kit Ver.2 (Takara Shuzo). The resulting plasmid was subjected to transformation of competent cell of E. coli JM109 (Takara Shuzo) to obtain plasmid pCKR5.
CHO-K1 cells were grown in 750 ml of tissue culture flask (Becton Dickinson) using Ham's F12 medium (Nihon Pharmaceutical) containing 10% fetal calf serum (Life Tech Oriental) and took off with 0.5 g/L trypsin-0.2 g/L EDTA (Life Tech Oriental). The cells were washed with PBS (Life Tech Oriental), centrifuged (1000 rpm, 5 minutes), and suspended in PBS. With using Gene Pulser (Bio-Rad Laboratories), DNA was introduced into the cells under the conditions shown below. That is, to the cuvette of 0.4 cm gap were added 8×10^6 cells and 10 μg of plasmid pCKR5 for expression of human CCR5, and electroporation was carried out under 0.25 kV of voltage and 960 μF of capacitance. The cells were transferred into Ham's F12 medium (Nihon Pharmaceutical) containing 10% fetal calf serum, and cultivated for 24 hours. The cells were again took off and centrifuged, and suspended in Ham's F12 medium (Nihon Pharmaceutical) containing 10% fetal calf serum and 500 μg/ml of geneticin (Life Tech Oriental). The suspension was diluted to give 10^4 cells/ml of the suspension, which was inoculated on 96 well plate (Becton Dickinson) to give geneticin resistant cells. The resulting geneticin resistant cells were cultivated in 96 well plate (Becton Dickinson), and cells expressing CCR5 were selected from the geneticin resistant cells. That is, in assay buffer (Ham's F12 medium containing 0.5% BSA and 20 mM HEPES (Wako Pure Chemical, pH7.2) to which was added 200 pM of [^125 I]-RANTES (Amersham) as ligand, binding reaction was carried out at room temperature for 40 minutes, and the buffer was washed with cooled PBS. To the buffer was added 50 μl/well of 1M NaOH, and the mixture was stirred. Radioactivity was determined with γ-counter to select CHO/CCR5 cells which specifically bind to the ligand.
The CHO/CCR5 were inoculated on 96 well microplate (5×10^4 cells/well) and cultivated for 24 hours. The medium was removed by means of suction, and to each well was added assay buffer containing Test Compound (1 μM) and then 100 pM of [^125 I]-RANTES (Amersham) as ligand. Binding assay was carried out at room temperature for 40 minutes, and assay buffer was removed by means of suction. Each well was washed twice with cooled PBS, and 200 μl of Microscint-20 (Packard Instrument, Inc.) was added to each well. Radio-activity was determined with Top-Count Micro Scintillation Counter (Packard Instrument, Inc.).
According to the method described above, inhibition rate of Test Compound (whose number is referred to in the following Examples) to CCR5 binding.

The subject of the next experiment is HIV-1 BA-L. Nature of the experiment: Inhibitory effect on HIV-1 infection to MAGI-CCR5 cell (β-galactosidase activity). It is filed as cell-based. Particulars: 100 μl of medium containing 1.6 μM Test Compound plus 100 μl of medium containing 300PFU HIV-1 BA-L; MAGI-CCR5 cells; 37° C., 2 days. How it is done: The plasmid where β-galactosidase gene was ligated downstream of HIV-1 LTR was introduced into CD4 positive HeLa cell, to which human CCR5 was further introduced to obtain transformant MAGI-CCR5. By using said transformant MAGI-CCR5, degree of HIV-1 infection was calculated from β-galactosidase activity (blue color due to decomposition of 5-bromo-4-chloro-3-indolyl-β-D-galactopyranoside). Specifically, MAGI-CCR5 cells were suspended in DMEM medium containing 10% serum to prepare 5×10^4 cells/ml suspension. To each well of 96 well plate was inoculated 200 μl of the suspension, and the cells were cultivated at 37° C. overnight. The medium was removed by means of suction, and to the residue was added 100 μl of the above medium containing 1.6 μM of Test Compound and 100 μl of the above medium containing 300PFU of HIV-1 BA-L cells. The cells were cultivated at 37° C. for 2 days. The medium was removed by means of suction. To the residue was added 200 μl of cell fixative (PBS containing 1% formaldehyde and 0.2% glutaraldehyde), and the mixture was allowed to stand at room temperature for 5 minutes and washed twice with PBS. To the mixture was added 100 μl of staining solution (PBS containing […] and 0.4 mg/ml X-gal), and the mixture was allowed to stand at 37° C. for 50 minutes and washed twice with PBS. The number of blue cells was counted by microscope and defined as the number of cells infected with HIV-1. According to this method, inhibition rate on HIV-1 infection was determined.

T1 sequence (P51681 whole entry): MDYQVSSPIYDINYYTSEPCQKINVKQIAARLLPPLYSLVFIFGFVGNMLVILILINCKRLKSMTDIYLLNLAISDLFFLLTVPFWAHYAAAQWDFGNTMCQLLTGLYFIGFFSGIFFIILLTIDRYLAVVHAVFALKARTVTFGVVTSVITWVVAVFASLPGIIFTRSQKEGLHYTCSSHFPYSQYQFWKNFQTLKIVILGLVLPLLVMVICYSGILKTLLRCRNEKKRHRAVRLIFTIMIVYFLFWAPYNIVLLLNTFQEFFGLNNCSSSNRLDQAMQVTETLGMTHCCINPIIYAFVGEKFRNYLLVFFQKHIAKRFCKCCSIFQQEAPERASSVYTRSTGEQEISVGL

For orientation: inhibition means the drop in the measured response relative to a control, in per cent. On to `CCOc1ccc(-c2ccc3c(c2)C=C(C(=O)Nc2ccc(CN(C)C4CCOCC4)cc2)CCS3(=O)=O)cc1` [Compound 4, 7-(4-ethoxyphenyl)-N-[4-[N-methyl-N-(tetrahydropyran-4-yl)aminomethyl]phenyl]-1,1-dioxo-2,3-dihydro-1-benzothiepine-4-carboxamide], for which the inhibition at 1 µM at human CCR5 stood at 91%.
Same read-out and setting: next, `CCCc1ccc(-c2ccc3c(c2)C=C(C(=O)Nc2ccc(CN(C)C4CCOCC4)cc2)CCS3(=O)=O)cc1` [Compound 27, N-[4-[N-methyl-N-(tetrahydropyran-4-yl)aminomethyl]phenyl]-7-(4-propylphenyl)-1,1-dioxo-2,3-dihydro-1-benzothiepine-4-carboxamide]: 100%.
Regarding `CCCOc1ccc(-c2ccc3c(c2)C=C(C(=O)Nc2ccc(CN(C)C4CCOCC4)cc2)CCS3(=O)=O)cc1` [Compound 29, N-[4-[N-methyl-N-(tetrahydropyran-4-yl)aminomethyl]phenyl]-7-(4-propoxyphenyl)-1,1-dioxo-2,3-dihydro-1-benzothiepine-4-carboxamide], the inhibition at 1 µM on human CCR5 worked out at 100%. For the same molecule, the “Inhibition Rate (HIV-1 infection)” value in the experiment with HIV-1 BA-L is recorded as 91%.
Consider `CCCCOc1ccc(-c2ccc3c(c2)C=C(C(=O)Nc2ccc(CN(C)C4CCOCC4)cc2)CCS3(=O)=O)cc1` [Compound 30, 7-(4-butoxyphenyl)-N-[4-[N-methyl-N-(tetrahydropyran-4-yl)aminomethyl]phenyl]-1,1-dioxo-2,3-dihydro-1-benzothiepine-4-carboxamide], for which, on human CCR5, the inhibition at 1 µM was 99%. Further, the “Inhibition Rate (HIV-1 infection)” value in the experiment with HIV-1 BA-L is on record as 91%.
Turning to `CCSc1ccc(-c2ccc3c(c2)C=C(C(=O)Nc2ccc(CN(C)C4CCOCC4)cc2)CCS3(=O)=O)cc1` [Compound 44, 7-[(4-ethylthio)phenyl]-N-[4-[N-methyl-N-(tetrahydropyran-4-yl)aminomethyl]phenyl]-1,1-dioxo-2,3-dihydro-1-benzothiepine-4-carboxamide], the inhibition at 1 µM at human CCR5 came to 96%.
Same read-out and setting: as for `CCN(CC)c1ccc(-c2ccc3c(c2)C=C(C(=O)Nc2ccc(CN(C)C4CCOCC4)cc2)CCS3(=O)=O)cc1` [Compound 54, 7-(4-diethylaminophenyl)-N-[4-[[N-methyl-N-(tetrahydropyran-4-yl)amino]methyl]phenyl]-1,1-dioxo-2,3-dihydro-1-benzothiepine-4-carboxamide], the figure is 99%; as for `CCCOCCOc1ccc(-c2ccc3c(c2)C=C(C(=O)Nc2ccc(CN(C)C4CCOCC4)cc2)CCS3(=O)=O)cc1OCC` [Compound 73, 7-[3-ethoxy-4-(2-propoxyethoxy)phenyl]-N-[4-[[N-methyl-N-(tetrahydropyran-4-yl)amino]methyl]phenyl]-1,1-dioxo-2,3-dihydro-1-benzothiepine-4-carboxamide], 94%; as for `CCCOCCOc1ccc(-c2ccc3c(c2)C=C(C(=O)Nc2ccc(CN(C)C4CCOCC4)cc2)CCS3(=O)=O)cc1Cl` [Compound 74, 7-[3-chloro-4-(2-propoxyethoxy)phenyl]-N-[4-[[N-methyl-N-(tetrahydropyran-4-yl)amino]methyl]phenyl]-1,1-dioxo-2,3-dihydro-1-benzothiepine-4-carboxamide], 94%.
`CCCOCCOc1ccc(-c2ccc3c(c2)C=C(C(=O)Nc2ccc(CN(C)C4CCOCC4)cc2)CCS3(=O)=O)cc1C` [Compound 75, 7-[3-methyl-4-(2-propoxyethoxy)phenyl]-N-[4-[[N-methyl-N-(tetrahydropyran-4-yl)amino]methyl]phenyl]-1,1-dioxo-2,3-dihydro-1-benzothiepine-4-carboxamide]: the inhibition at 1 µM at human CCR5 is 95%.
`CCOCCOc1ccc(-c2ccc3c(c2)C=C(C(=O)Nc2ccc(CN(C)C4CCOCC4)cc2)CCS3(=O)=O)cc1` [Compound 84, 7-[4-(2-ethoxyethoxy)phenyl]-N-[4-[[N-methyl-N-(tetrahydropyran-4-yl)amino]methyl]phenyl]-1,1-dioxo-2,3-dihydro-1-benzothiepine-4-carboxamide]: the inhibition at 1 µM at human CCR5 came to 97%.
As to `CC(C)OCCOc1ccc(-c2ccc3c(c2)C=C(C(=O)Nc2ccc(CN(C)C4CCOCC4)cc2)CCS3(=O)=O)cc1` [Compound 111, 7-[4-(2-isopropoxyethoxy)phenyl]-N-[4-[[N-methyl-N-(tetrahydropyran-4-yl)amino]methyl]phenyl]-1,1-dioxo-2,3-dihydro-1-benzothiepine-4-carboxamide], the inhibition at 1 µM on human CCR5 stood at 95%.
Turning to `CCOCCCc1ccc(-c2ccc3c(c2)C=C(C(=O)Nc2ccc(CN(C)C4CCOCC4)cc2)CCS3(=O)=O)cc1` [Compound 123, 7-[4-(3-ethoxypropyl)phenyl]-N-[4-[[N-methyl-N-(tetrahydro-2H-pyran-4-yl)amino]methyl]phenyl]-1,1-dioxo-2,3-dihydro-1-benzothiepine-4-carboxamide], the inhibition at 1 µM at human CCR5 is 94%.
Still for that read-out and setting: as for `CCOCCOc1c(C)cc(-c2ccc3c(c2)C=C(C(=O)Nc2ccc(CN(C)C4CCOCC4)cc2)CCS3(=O)=O)cc1C` [Compound 124, 7-[4-(2-ethoxyethoxy)-3,5-dimethylphenyl]-N-[4-[[N-methyl-N-(tetrahydro-2H-pyran-4-yl)amino]methyl]phenyl]-1,1-dioxo-2,3-dihydro-1-benzothiepine-4-carboxamide], the figure is 97%; as for `CCCOc1ccc(-c2ccc3c(c2)C=C(C(=O)Nc2ccc(CN(C)C4CCOCC4)cc2)CCS3(=O)=O)cc1OCC` [Compound 125, 7-(3-ethoxy-4-propoxyphenyl)-N-[4-[[N-methyl-N-(tetrahydro-2H-pyran-4-yl)amino]methyl]phenyl]-1,1-dioxo-2,3-dihydro-1-benzothiepine-4-carboxamide], 92%.
Consider `CCOCCOc1ccc(-c2ccc3c(c2)C=C(C(=O)Nc2ccc(CN(C)C4CCOCC4)cc2)CCS3(=O)=O)cc1C` [Compound 129, 7-[4-(2-ethoxyethoxy)-3-methyl-phenyl]-N-[4-[[N-methyl-N-(tetrahydropyran-4-yl)amino]methyl]phenyl]-1,1-dioxo-2,3-dihydro-1-benzothiepine-4-carboxamide], for which, on human CCR5, the inhibition at 1 µM turned out to be 95%.

Source of the values: patent US6235771A, “Anilide derivative, production and use thereof” (Takeda Chemical Industries, Ltd., priority 1998, dated 2001).
